The values below come from patent US12180158B1, “Crystalline fumarate salts of n-ethyl-2-(5-fluoro-1H-indol-3-yl)-n-methylethan-1-amine” (Gilgamesh Pharmaceuticals, Inc., priority 2023, dated 2024).

A short description of data set [1]: Dynamic Vapor Sorption (DVS) isotherm. In kind it is physicochemical. The note with it: 25° C., FIG. 19. On the procedure: Dynamic Vapor Sorption (DVS) was performed using a Q5000SA. The sample (5-15 mg) was loaded into a metallic quartz sample pan, suspended from a microbalance, and exposed to a humidified stream of nitrogen gas. Weight changes were relative to a matching empty reference pan opposite the sample, suspended from the microbalance. The sample was held for a minimum of 10 min at each level and only progressed to the next humidity level if there was <0.002% change in weight between measurements (interval: 5 s) or 45 min had elapsed (for 5-65% RH) or 2 h had elapsed (for 80 and 95% RH). The following programs were used: • 1—Equilibration at 50% RH • 2—50% to 5%. (50%, 35%, 20%, and 5%) • 3—5% to 95% (5%, 20%, 35%, 50%, 65%, 80%, and 95%) • 4—95% to 5% (95%, 80%, 65%, 50%, 35%, 20%, and 5%) • 5—5% to 50% (5%, 20%, 35%, and 50%) • 1—Equilibration at 50% RH • 2—50% to 2%. (50%, 40%, 30%, 20%, 10%, and 2%) • 3—2% to 75% (2%, 10%, 20%, 30%, 40%, 50%, 60%, 70% and 75%) • 4—75% to 2% (75%, 70%, 60%, 50%, 40%, 30%, 20%, 10% and 2%) • 5—2% to 50% (2%, 10%, 20%, 30%, 40% and 50%) • 1—Equilibration at 50% RH • 2—50% to 2%. (50%, 40%, 30%, 20%, 10%, and 2%) • 3—2% to 65% (2%, 10%, 20%, 30%, 40%, 50%, 60% and 65%) • 4—65% to 2% (65%, 60%, 50%, 40%, 30%, 20%, 10% and 2%) • 5—2% to 50% (2%, 10%, 20%, 30%, 40% and 50%). […]

Data set [2] is described as follows: Exposure of dry cake to humidity, solid form checked by XRPD. It is filed as physicochemical. Particulars: for XRPD pattern, dry cake exposed to humidity: monofumarate solids exposed to humidity (90% RH/30° C.), monofumarate. On the procedure: The two different polymorphic forms of N-ethyl-2-(5-fluoro-1H-indol-3-yl)-N-methylethan-1-amine monofumarate were discovered by reactive crystallization from various solvents. These crystallization experiments were performed by subjecting the in-situ created salt, made by evaporating an ethanol solution of free base and fumaric acid, to vigorous agitation in 10 volumes of the selected solvent. The agitated mixtures were heated to 45-50° C. and cooled to room temperature as necessary to induce crystallization. Form 1 was the predominant form from acetone, and the mixed ethanol/MTBE solvent system, whereas, Form 2 was produced from IPA solvent (see Table 7 below).
The polymorphic Form 1 of N-ethyl-2-(5-fluoro-1H-indol-3-yl)-N-methylethan-1-amine hemifumarate was discovered by reactive crystallization from various solvents. These crystallization experiments were performed by subjecting the in-situ created salt, made by evaporating an ethanol solution of free base and 0.55 equivalents of fumaric acid, to vigorous agitation in 10 volumes of the selected solvent. The agitated mixtures were heated to 45-50° C. and cooled to room temperature as necessary to induce crystallization. Only one form was observed from the brief crystallization screening study, as depicted in Table 10 below.

As to `CCN(C)CCc1c[nH]c2ccc(F)cc12.Cl` [hydrochloride Form 1, N-ethyl-2-(5-fluoro-1H-indol-3-yl)-N-methylethan-1-amine hydrochloride], the “DVS isotherm behaviour (moisture sorption equilibrium)” value in data set [1] is listed as “did not reach equilibrium at 75% RH”.
Consider `CCN(C)CCc1c[nH]c2ccc(F)cc12.O=C(O)/C=C/C(=O)O` [monofumarate Form 1, N-ethyl-2-(5-fluoro-1H-indol-3-yl)-N-methylethan-1-amine monofumarate], for which, in data set [2], the “XRPD pattern, dry cake exposed to humidity” value was “Form 1”.
Turning to `CCN(C)CCc1c[nH]c2ccc(F)cc12.O=C(O)/C=C/C(=O)O` [monofumarate Form 2, N-ethyl-2-(5-fluoro-1H-indol-3-yl)-N-methylethan-1-amine monofumarate], the “XRPD pattern, dry cake exposed to humidity” value in data set [2] is “slowly converted to Form 1”.
“N-ethyl-2-(5-fluoro-1H-indol-3-yl)-N-methylethan-1-amine hemifumarate [hemifumarate Form 1]”: in data set [2] (hemi-fumarate dry solid from EtOH:MTBE (1:1 vol.), exposed to humidity), the “XRPD pattern, Humid” value is “deliquescent”.
